Laboratory results published in ChEMBL document CHEMBL5465560, “Selectivity Literature for EUbOPEN Chemogenomic Library” (2024).
Blank lines part the entries; values can stand above or below the molecule they belong to.

What was measured:
[1] = target: T1, Inhibitor of nuclear factor kappa-B kinase subunit beta (Homo sapiens) (UniProt O14920); assay: Selectivity interaction (Kinase panel (Z-LYTE Assay)) EUB0001632a IKBKB; details: at 10 µM
T1 sequence (whole entry): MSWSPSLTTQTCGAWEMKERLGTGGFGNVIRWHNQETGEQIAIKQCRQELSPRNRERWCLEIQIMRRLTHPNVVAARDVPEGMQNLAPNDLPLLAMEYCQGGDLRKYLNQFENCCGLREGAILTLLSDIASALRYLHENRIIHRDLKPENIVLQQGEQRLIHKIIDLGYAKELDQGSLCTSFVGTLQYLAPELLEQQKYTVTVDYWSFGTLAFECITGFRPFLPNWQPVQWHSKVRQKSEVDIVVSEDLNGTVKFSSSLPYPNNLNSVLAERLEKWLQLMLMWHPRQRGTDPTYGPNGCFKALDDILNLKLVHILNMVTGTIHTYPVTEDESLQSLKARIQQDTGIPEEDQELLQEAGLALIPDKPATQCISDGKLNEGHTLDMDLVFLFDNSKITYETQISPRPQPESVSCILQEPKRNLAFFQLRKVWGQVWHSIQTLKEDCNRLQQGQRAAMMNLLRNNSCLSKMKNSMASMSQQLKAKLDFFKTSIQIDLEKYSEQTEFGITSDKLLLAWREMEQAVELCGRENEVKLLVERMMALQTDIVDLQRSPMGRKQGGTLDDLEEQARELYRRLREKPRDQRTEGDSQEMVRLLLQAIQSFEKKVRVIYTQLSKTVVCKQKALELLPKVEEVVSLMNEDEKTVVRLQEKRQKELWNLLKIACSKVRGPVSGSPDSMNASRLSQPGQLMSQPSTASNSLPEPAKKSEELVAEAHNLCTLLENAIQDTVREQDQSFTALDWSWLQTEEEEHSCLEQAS

[2] = target: Misshapen-like kinase 1 (Homo sapiens, UniProt Q8N4C8); assay: Selectivity interaction (Upstate Kinase Profiler service (Millipore)) EUB0000056c MINK1; details: at 1 µM
Sequence of Misshapen-like kinase 1 (Q8N4C8 whole entry, looked up): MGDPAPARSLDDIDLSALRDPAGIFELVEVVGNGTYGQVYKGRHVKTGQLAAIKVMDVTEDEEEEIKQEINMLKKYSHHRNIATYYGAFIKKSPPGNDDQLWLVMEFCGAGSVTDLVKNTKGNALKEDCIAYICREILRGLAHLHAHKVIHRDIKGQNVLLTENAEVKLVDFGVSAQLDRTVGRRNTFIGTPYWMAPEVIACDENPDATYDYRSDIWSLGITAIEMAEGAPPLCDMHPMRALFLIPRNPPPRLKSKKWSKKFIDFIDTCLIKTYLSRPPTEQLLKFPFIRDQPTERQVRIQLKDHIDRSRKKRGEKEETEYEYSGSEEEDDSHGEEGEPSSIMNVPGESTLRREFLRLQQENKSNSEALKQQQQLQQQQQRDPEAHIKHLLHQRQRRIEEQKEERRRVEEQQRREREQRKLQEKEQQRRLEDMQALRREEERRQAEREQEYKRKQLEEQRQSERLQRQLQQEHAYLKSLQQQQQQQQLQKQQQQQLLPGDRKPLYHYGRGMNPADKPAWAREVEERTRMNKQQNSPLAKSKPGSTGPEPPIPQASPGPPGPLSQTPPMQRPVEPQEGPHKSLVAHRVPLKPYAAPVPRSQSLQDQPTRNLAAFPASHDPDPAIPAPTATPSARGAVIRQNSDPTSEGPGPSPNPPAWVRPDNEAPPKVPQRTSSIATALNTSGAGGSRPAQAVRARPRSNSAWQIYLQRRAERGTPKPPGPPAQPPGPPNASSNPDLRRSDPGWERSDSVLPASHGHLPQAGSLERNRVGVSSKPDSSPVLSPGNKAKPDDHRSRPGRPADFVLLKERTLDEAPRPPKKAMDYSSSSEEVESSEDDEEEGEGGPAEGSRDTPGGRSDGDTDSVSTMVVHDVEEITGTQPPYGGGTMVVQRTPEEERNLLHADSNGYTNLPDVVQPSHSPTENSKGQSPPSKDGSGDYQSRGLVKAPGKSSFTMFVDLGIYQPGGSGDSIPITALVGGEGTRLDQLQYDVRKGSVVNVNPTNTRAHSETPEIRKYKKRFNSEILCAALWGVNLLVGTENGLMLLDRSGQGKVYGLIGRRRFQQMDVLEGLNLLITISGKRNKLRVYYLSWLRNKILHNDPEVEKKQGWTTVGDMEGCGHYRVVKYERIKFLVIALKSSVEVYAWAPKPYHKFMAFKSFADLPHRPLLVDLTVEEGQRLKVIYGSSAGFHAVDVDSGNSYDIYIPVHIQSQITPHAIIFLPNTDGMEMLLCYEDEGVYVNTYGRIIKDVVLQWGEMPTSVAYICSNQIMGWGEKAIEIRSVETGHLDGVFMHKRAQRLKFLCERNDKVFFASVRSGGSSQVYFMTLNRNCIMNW

[3] = target: Protein kinase C delta type (Homo sapiens) (UniProt Q05655); details: at 10 µM
Sequence of Protein kinase C delta type (Homo sapiens) (Q05655 whole entry, looked up): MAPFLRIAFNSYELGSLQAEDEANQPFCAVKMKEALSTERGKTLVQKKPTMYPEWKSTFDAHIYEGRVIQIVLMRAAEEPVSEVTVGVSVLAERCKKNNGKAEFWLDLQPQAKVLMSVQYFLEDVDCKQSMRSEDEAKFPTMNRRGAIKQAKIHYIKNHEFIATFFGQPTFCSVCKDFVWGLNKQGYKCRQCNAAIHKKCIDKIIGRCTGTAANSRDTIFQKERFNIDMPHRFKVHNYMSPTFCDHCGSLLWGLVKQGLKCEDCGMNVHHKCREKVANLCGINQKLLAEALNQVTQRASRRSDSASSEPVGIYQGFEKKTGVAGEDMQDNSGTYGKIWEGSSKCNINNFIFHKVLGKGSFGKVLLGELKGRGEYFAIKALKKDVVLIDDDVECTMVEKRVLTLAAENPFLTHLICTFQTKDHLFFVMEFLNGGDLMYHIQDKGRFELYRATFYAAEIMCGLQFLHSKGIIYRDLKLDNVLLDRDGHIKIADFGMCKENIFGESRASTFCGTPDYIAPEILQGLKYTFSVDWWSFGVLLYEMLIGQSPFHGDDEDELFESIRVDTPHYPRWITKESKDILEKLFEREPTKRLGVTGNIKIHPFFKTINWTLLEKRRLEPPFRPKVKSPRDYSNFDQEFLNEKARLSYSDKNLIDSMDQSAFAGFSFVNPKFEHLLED

[4] = target: T2, Serine/threonine-protein kinase 17A (Homo sapiens) (UniProt Q9UEE5); assay: Selectivity interaction (Kinase panel (Invitrogen)) EUB0000639a STK17A; details: at 200 nM
T2 sequence (whole entry): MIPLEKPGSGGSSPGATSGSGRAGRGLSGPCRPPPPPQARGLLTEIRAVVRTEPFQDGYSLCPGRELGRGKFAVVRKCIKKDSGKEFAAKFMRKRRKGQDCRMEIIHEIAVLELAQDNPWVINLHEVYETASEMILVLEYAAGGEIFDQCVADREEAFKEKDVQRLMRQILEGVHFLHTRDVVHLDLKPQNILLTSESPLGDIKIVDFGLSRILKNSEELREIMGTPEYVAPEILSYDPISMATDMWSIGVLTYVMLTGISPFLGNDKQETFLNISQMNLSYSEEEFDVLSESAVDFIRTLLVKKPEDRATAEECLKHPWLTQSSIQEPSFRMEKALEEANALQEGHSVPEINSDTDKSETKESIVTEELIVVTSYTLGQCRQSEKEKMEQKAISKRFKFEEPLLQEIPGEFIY

[5] = target: Calcium/calmodulin-dependent protein kinase type II subunit alpha (Homo sapiens, UniProt Q9UQM7); assay: Selectivity interaction (ProQinase) EUB0000171b CAMK2A
Sequence of Calcium/calmodulin-dependent protein kinase type II subunit alpha (Q9UQM7 whole entry): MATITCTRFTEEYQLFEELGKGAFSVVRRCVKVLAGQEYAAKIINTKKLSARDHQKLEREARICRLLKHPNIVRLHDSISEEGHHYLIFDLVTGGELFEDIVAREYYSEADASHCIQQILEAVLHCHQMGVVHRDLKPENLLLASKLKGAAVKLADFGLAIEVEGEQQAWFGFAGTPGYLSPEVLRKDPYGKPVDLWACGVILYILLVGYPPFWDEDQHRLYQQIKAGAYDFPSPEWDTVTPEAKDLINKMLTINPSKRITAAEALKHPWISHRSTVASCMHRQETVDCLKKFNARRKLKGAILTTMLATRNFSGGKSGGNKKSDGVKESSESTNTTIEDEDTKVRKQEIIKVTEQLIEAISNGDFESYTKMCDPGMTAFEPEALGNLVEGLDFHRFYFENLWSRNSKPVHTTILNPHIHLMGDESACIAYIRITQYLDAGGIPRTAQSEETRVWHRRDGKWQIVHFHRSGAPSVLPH

[6] = target: T3, Inhibitor of nuclear factor kappa-B kinase subunit alpha (Homo sapiens) (UniProt O15111); assay: Selectivity interaction (KinomeScan (DiscoverX)) EUB0001049a CHUK; details: at 1 µM
T3 sequence (whole entry): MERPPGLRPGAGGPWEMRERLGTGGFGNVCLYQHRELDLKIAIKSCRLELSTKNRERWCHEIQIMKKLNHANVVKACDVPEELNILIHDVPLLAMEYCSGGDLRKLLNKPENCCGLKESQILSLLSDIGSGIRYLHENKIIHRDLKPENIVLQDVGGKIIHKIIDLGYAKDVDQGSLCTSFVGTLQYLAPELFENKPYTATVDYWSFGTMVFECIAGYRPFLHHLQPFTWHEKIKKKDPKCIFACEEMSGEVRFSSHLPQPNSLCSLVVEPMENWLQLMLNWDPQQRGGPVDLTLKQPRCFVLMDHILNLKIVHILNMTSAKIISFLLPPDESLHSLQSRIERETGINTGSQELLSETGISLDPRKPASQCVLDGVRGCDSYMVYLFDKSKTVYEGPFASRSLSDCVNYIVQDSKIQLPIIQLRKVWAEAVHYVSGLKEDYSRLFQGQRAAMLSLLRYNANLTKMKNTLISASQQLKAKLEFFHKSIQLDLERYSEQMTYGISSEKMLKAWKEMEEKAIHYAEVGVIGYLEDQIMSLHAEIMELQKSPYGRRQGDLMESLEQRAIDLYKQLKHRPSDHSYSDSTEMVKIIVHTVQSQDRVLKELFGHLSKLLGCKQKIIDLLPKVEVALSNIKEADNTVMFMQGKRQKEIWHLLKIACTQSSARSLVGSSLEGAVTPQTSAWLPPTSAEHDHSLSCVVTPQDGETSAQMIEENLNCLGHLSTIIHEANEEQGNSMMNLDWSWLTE

[7] = target: T4, Serine/threonine-protein kinase Chk1 (Homo sapiens) (UniProt O14757); assay: Selectivity interaction (Ambit KINOMEscan and KiNATiv profiling in Jurkat cells) EUB0000090b CHEK1; format: cell-based; details: at 1 µM
T4 sequence (whole entry): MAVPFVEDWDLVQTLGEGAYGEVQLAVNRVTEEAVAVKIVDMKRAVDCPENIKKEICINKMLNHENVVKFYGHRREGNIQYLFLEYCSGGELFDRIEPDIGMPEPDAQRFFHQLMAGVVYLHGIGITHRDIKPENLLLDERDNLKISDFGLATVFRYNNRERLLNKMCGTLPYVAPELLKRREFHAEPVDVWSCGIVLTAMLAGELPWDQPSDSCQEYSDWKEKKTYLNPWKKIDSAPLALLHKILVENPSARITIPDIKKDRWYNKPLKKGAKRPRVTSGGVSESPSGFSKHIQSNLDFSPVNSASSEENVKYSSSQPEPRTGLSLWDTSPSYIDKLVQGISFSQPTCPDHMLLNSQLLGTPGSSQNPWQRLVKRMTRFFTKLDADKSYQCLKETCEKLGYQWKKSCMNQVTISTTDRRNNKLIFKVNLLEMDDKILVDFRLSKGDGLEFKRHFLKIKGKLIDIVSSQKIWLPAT

[8] = target: Mitogen-activated protein kinase kinase kinase 9 (Homo sapiens) (UniProt P80192); assay: Selectivity interaction (Kinase panel (KiNativ target engagement assay in Jurkat cells)) EUB0001635a MAP3K9; format: cell-based; details: Selectivity number of off-targets 0.0, Selectivity number of targets 233.0, Source Knowledge https://www.sciencedirect.com/science/article/pii/S2451945619300674?via%3Dihub, at 1 µM
Sequence of Mitogen-activated protein kinase kinase kinase 9 (Homo sapiens) (P80192 whole entry, looked up): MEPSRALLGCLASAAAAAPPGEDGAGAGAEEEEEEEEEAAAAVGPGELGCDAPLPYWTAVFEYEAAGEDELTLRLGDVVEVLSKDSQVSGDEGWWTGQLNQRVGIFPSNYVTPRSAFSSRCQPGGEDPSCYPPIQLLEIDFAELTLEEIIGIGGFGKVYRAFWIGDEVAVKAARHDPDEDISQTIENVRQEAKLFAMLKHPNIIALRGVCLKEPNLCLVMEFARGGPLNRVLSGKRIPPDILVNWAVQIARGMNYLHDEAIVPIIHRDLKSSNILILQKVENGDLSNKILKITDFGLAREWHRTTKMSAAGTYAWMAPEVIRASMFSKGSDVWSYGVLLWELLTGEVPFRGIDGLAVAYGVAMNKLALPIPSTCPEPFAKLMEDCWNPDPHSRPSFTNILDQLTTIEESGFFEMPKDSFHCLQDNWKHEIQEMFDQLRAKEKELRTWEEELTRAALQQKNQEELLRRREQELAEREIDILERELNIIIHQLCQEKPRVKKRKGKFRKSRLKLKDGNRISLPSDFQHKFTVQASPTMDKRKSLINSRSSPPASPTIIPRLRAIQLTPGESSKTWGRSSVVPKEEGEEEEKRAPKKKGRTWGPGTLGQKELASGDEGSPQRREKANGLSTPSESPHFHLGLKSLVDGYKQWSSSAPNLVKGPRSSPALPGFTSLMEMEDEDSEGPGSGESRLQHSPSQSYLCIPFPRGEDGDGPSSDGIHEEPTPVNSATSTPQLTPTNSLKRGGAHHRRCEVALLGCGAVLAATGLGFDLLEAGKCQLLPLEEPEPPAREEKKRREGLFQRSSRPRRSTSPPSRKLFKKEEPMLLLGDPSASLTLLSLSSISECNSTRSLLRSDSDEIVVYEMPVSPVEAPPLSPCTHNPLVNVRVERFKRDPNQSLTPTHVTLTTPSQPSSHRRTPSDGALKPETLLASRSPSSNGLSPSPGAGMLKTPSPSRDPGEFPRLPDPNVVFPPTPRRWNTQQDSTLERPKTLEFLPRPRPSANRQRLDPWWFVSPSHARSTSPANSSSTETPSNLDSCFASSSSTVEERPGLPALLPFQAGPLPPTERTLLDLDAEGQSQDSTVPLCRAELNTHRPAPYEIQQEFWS

[9] = target: Serine/threonine-protein kinase Nek7 (Homo sapiens) (UniProt Q8TDX7); assay: Selectivity interaction (ActivX KiNativ screen (ex vivo kinase selectivity in human PBMCs)) EUB0001619a NEK7; format: cell-based; details: PBMC, at 1 µM
Sequence of Serine/threonine-protein kinase Nek7 (Homo sapiens) (Q8TDX7 whole entry, looked up): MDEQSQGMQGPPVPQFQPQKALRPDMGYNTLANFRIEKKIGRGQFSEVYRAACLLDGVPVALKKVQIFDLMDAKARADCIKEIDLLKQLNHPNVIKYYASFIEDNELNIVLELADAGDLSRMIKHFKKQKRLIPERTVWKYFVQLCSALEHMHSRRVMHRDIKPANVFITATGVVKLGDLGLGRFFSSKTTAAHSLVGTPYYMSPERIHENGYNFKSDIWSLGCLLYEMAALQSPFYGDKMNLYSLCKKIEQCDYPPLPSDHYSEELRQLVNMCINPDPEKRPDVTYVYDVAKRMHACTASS

% of control [1]: -3.93%
SMILES: Cn1cc(-n2cnc3c(NCc4nc5cc(Cl)c(Cl)cc5[nH]4)nc(N4CCOCC4)nc32)cn1

% of inhibition [2]: 11%
SMILES: Cc1ccc(-c2ccc3c(ccc4sc5c(c43)NC[C@@H](C)NC5=O)n2)cn1

% of control [3]: 100%
SMILES: CCN(CC)CCCCNc1ncc2cc(-c3cc(OC)cc(OC)c3)c(NC(=O)NC(C)(C)C)nc2n1

% of inhibition [4]: 56.9%
SMILES: CC[C@@H]1[C@H](F)C(=O)N[C@@H]1COc1nccc2cc(C(N)=O)c(OC)cc12 [ZIMLOVISERTIB]

% of control ([5]; at 1 µM): 90%
% of control ([5]; at 5 µM): 90%
SMILES: C=CC(=O)Nc1cccc(C(=O)Nc2ccc(Nc3cc(-c4[nH]c(SC)nc4C)ccn3)cc2)c1

SMILES: COc1cc(Nc2nc(C)cc(-c3cnn4nc(OC)ccc34)n2)cc(C(F)(F)F)c1
% of control [6]: 95%

SMILES: CN(C)C/C=C/C(=O)Nc1ccc(C(=O)N2CCCC(Nc3ncc(Cl)c(-c4c[nH]c5ccccc45)n3)C2)cc1 (stereo not given)
% of control [7]: 89%

SMILES: C=CC(=O)Nc1ccc(C(=O)Nc2[nH]nc3c2CN(C(=O)N[C@H](CN(C)C)c2ccccc2)C3(C)C)cc1
% of engagement [8]: 0.3%

SMILES: N#Cc1cccc(-c2c[nH]c3ncnc(N4CCOCC4)c23)c1
% of inhibition [9]: -5%
